Molecular target: dopamine D1 receptor (Rattus norvegicus, UniProt P18901)
Experiment: competition autoradiography with 3H-SCH […] in rat brain slices

dopamine D1 receptor, sequence (P18901 whole entry): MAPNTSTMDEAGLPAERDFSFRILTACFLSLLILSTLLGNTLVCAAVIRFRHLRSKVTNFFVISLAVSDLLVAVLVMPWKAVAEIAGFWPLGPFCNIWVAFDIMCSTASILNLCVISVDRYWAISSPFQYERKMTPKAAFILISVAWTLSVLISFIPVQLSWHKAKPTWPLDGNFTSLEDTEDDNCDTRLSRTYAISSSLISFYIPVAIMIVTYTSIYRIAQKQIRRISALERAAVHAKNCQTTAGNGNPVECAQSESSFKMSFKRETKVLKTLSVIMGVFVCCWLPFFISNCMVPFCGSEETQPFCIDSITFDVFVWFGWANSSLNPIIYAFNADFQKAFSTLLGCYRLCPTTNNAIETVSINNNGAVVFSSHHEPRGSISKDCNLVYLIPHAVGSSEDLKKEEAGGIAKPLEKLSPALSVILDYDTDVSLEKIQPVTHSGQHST

- Ki: 19.5 nM
Compound: CN1CCc2cc(Cl)c(O)cc2C(c2cccc(NC[C@H](F)[C@@H](O)[C@H](O)[C@H](O)CO)c2)C1 (stereo partly drawn) [compound 7, 7-chloro-8-hydroxy-3-methyl-l-(3’-fluorodeoxyglucaminophenyl)-2,3,4,5-tetrahydro-lH-3-benzazepine]

— publication PMC4469266 (Bioorganic & medicinal chemistry letters, 2015)
